From US20080214656A1, “Compounds With Diphenoyl-Structure For the Treatment of Immune Diseases” (Neurogenex Co., Ltd., priority 2004, published 2008)

Columns and labels:
[1] = test system: Foxp3; test: Foxp3 expression in stimulated CD4+ T cells by real-time RT-PCR; type: cell-based, mice; conditions: approximately 50 μM; mouse spleen CD4+ T cells stimulated by anti-CD3 and anti-CD28
Protocol: CD4^+ T cells were obtained from the spleens of mice, and each group of the CD4^+ Tcells with a concentration of approximately 1×10^6 ml^−1 was suspended in Iscove's modified Dulbecco's medium (IMDM) supplemented with 10% fetal bovine serum (Gibco, USA). The CD4^+ T cells were stimulated by antibodies of anti-CD3 (BD Bioscience, USA) and anti-CD28 (BD Bioscience, USA) and cultured at a cell incubator maintained with 5% CO2 at 37° C. The entire RNA was extracted using RNA-Bee solution (Tel-test, USA) and then reverse transcribed into cDNA through the known method as described by McIntyre et al. (Arthritis Rheum., 48(9), pp. 2652-2659, 2003). Afterwards, the level of mRNA expression was estimated by a real-time quantitative PCR with SYBR Green I (Roche, USA). Each reaction was run in triplicate using SYBR Green PCR Master Mix (Roche, USA) according to the manufacturer's protocol. […] At this time, the PCR was performed sequentially at 94° C. for 30 seconds, at 58° C. for 30 seconds, and at 72° C. for 30 seconds. This cycle of PCR was repeated 40 times.

[2] = test system: allogenic human leukocytes; test: Mixed leukocyte reaction (MLR), 3H-TdR incorporation; type: cell-based; conditions: for cpm (3H-TdR incorporation, lymphocyte proliferation) as % of the control group: approximately 50 μM, 5 days incubation
Protocol: Leukocytes were separated from peripheral blood of two allogenic volunteers, and then suspended with a concentration of approximately 2×10^6 ml^−1 in IMDM supplemented with 10% fetal bovine serum (Gibco, USA). 100 μl of each cell suspension was added and mixed in the each well of 96-well cell culture plate. Afterwards, saline solution was added to a control group, while chebulagic acid or punicalagin, which was diluted with saline solution by 2-fold, was added to treatment groups. Then, the plates were incubated with 5% CO2 at 37° C. for 5 days. 20 μl (approximately 0.5 μCi) of tritiated thymidine (^3H-TdR) was added to each well and incubated for 8 hours.
After the incubation, the leukocytes at each well were adsorbed on a glass fiber filter by a cell harvester (Cambridge, USA) and dried thereafter. Using Scintillation beta counter (Packard, USA), an amount of ^3H-TdR incorporated within the cells was measured in a cpm value. This measurement indicates the level of lymphocyte proliferation, which-is illustrated in FIG. 2.
In FIG. 2, CsA represents a group with 1 μM of cyclosporin A used as a positive standard specimen. The concentration of each chebulagic acid and punicalagin was approximately 50 μM. Each of the experimental data was expressed as average±standard error with a p* value of less than 0.05.

[3] = test system: collagen-induced arthritis; test: Collagen-induced arthritis (CIA), prophylactic dosing model; type: in vivo; conditions: 10 mg/kg and 20 mg/kg i.p. daily for 3 weeks (day 22 to day 42); DBA/1J mice
Protocol: (§1) As introduced in an article by Luross and Williams (Immunology, 103(4), pp. 407-416, 2001), a mice model with collagen-induced arthritis (CIA) was used to check whether compounds with a DP or HHDP structure had immune regulatory effects on the chronic inflammation or autoimmune diseases. Male DBA/1J mice, which were 7 to 9 weeks old (SLC Co., Japan), received a subcutaneous injection at the base of tails with approximately 200 μg of bovine type II collagen (CII) in complete Freund's adjuvant (CFA) on days 0 and 21 to induce systemic autoimmune arthritis. […]
For the prophylactic dosing model, the control group and the treatment groups respectively received an intraperitoneal injection of saline solution and 10 mg/kg and 20 mg/kg of chebulagic acid daily for 3 weeks (from day 22 to day 42). A degree of arthritis of the mice was measured for every interval of 3 to 4 days from day 22 to day 63. […] Each of the experimental data was expressed as average±standard error with a P* value of less than 0.05.
(§2) The daily observed arthritis degree of mice was scored for each paw as follows: 0=normal, 1=slight erythema and edema, 2=increased edema with loss of landmarks, 3=severe edema, and 4=severe edema with ankylosis on flexion. […] Each group was then assigned an arthritic score expressed as a mean articular index.

[4] = test system: skin allograft; test: Skin allograft between allogenic mice; type: in vivo; conditions: 20 mg/kg i.p. daily; Balb/c skin grafted to C57B1/6 mouse
Protocol: To verify that compounds with a DP or HHDP structure are capable of suppressing a transplantation rejection response or a graft-versus-host disease directly in vivo, a skin graft was performed between allogenic mice and then chebulagic acid was treated to estimate the level of suppression against the tissue transplantation (Schwoebel et al., Lab Anim., 39(2), pp. 209-214, 2005).
Skin tissues including the derma (e.g., approximately 1 cm×approximately 1 cm) from the back of a Balb/c mouse (Samtaco, Korea) and a C57B1/6 mouse (Samtaco, Korea) were isolated while being anesthetized. The skin tissue of the Balb/c mouse was grafted to the back of the C57B1/6 mouse. After the next day of the skin graft, the treatment group and the control group received the daily intraperitoneal injection of 20 mg/kg of chebulagic acid and saline solution, respectively. It was checked whether the grafted skin tissues in the control group and the treatment group were normal or necrotized.

[5] = test system: ovalbumin-induced asthma; test: Ovalbumin-induced asthma (OIA), blood IgE level; type: in vivo; conditions: 20 mg/kg i.p. daily for two weeks; Balb/c mice
Protocol: The immune regulation effects by compounds with a DP structure, preferably a HHDP structure, were estimated through a mice model with ovalbumin-induced asthma (OIA).
Balb/c mice (Samtaco, Korea) received an intraperitoneal injection of ovalbumin on days 0 and 14, and a solution of 1% ovalbumin was sprayed daily for 20 minutes on days 30, 32 and 34. 20 mg/kg of chebulagic acid was daily injected intraperitoneally for two weeks and bloods were taken to estimate the IgE level to check whether chebulagic acid had efficacy for the mice with the hypersensitive inflammatory disease.

[6] = test system: collagen-induced arthritis; test: Collagen-induced arthritis (CIA), therapeutic dosing model; type: in vivo, mice; conditions: 20 mg/kg i.p. daily for 3 weeks after arthritis induced (after day 63); within 1 week of therapeutic administration
Protocol: as §1
For the therapeutic doing model, another experiment was performed separately from the above experiment for the prophylactic dosing model. […] During 3 weeks of the treatment period, a degree of arthritis of the mice was measured for every interval of 3 to 4 days. […] Each of the experimental data was expressed as average±standard error with a P* value of less than 0.05.
as §2

[7] = test system: CD4+CD25+ regulatory T cells; test: Regulatory T cells in inflamed synovial tissues of CIA mice (FACS, Foxp3 RT-PCR); type: in vivo; conditions: 20 mg/kg
Description: A correlation between immune regulation by chebulagic acid and regulatory T cells was studied through estimation of an increase/decrease in the number of regulatory T cells in inflamed synovial tissues of the mice with collagen-induced arthritis set in specific groups in Example 3. The knee joints of the limbs with edema were isolated and the surrounding muscle, patellar ligament and patella were removed to obtain the synovial tissues. Each of the synovial tissues was cut into small pieces and incubated twice in a buffer solution at 37° C. for 30 minutes. The buffer solution includes approximately 1 μg/ml collagenase type VI (Sigma, USA), 2% fetal bovine serum (Gibco, USA) and 1 mM EDTA (Sigma, USA). The cells of the isolated synovial tissues were collected and stained with anti-CD4-FITC antibodies (BD Bioscience, USA) and anti-CD25-PE antibodies (BD Bioscience, USA) for fluorescence-activated cell sorter (FACS) analysis (BD Bioscience, USA).

[8] = synovial tissues of mice with arthritis

SMILES	increased amount of Foxp3 expression compared with the control group [1]	cpm (3H-TdR incorporation, lymphocyte proliferation) as % of the control group [2]	onset of collagen-induced arthritis and articular index [3]	success ratio and period of maintaining the tissue graft [4]	suppression of lymphocyte proliferation compared with cyclosporin ([2]; approximately 50 μM vs 1 μM cyclosporin A)	IgE level in blood as compared with the control group OVA-Control [5]	arthritis progression [6]	increase of the CD4+CD25+ T cells compared with the control group ([7]; CIA mice)	increase of the Foxp3 expression compared with the control group ([7]; CIA mice)	CD4+CD25+ T cell ratio (%) [7, 8] [%]	Foxp3 expression level [7, 8]
O=C1OC2C(O)OC3COC(=O)c4cc(O)c(O)c(O)c4-c4c(O)c(O)c5oc(=O)c6c(c(O)c(O)c7oc(=O)c4c5c76)-c4c(cc(O)c(O)c4O)C(=O)OC3C2OC(=O)c2cc(O)c(O)c(O)c2-c2c1cc(O)c(O)c2O (centres unmarked) [punicalagin]	approximately 737%	approximately 34.1%									
O=C(O)C[C@@H]1C(=O)O[C@H]2[C@@H]3OC(=O)c4cc(O)c(O)c(O)c4-c4c(cc(O)c(O)c4O)C(=O)OC[C@H]2O[C@@H](OC(=O)c2cc(O)c(O)c(O)c2)[C@@H]3OC(=O)c2cc(O)c(O)c3c2[C@H]1[C@H](O)C(=O)O3 [chebulagic acid]	approximately 375%	approximately 9.7%	decreased the onset of collagen-induced arthritis and the articular index	increased the success ratio and period of maintaining the tissue graft	as effective as 1 μM cyclosporin	approximately 28.5%	significant inhibition of the arthritis progression	approximately 100%	approximately 550%	5.0 ± 0.4	3.3 ± 0.3
O=C(O[C@@H]1O[C@@H]2COC(=O)c3cc(O)c(O)c(O)c3-c3c(cc(O)c(O)c3O)C(=O)O[C@H]([C@H]1O)[C@@H]2O)c1cc(O)c(O)c(O)c1 [corilagin]	approximately 350%										
